Molecular target: T1, β-secretase (BACE) (Homo sapiens, UniProt P56817)
T1 construct: purchased Panvera
Assay: BACE FS1% Inhibition Assay (Example 160)
Type: biochemical
Protocol: The following reagents were used in this assay: sodium acetate, PEB8000 (Sigma), DMSO, HEPES, FS1 substrate [[…]], β-secretase (BACE) (Panvera), and 96-well plate (HE microplate, Molecular Devices). […] The FS1-substrate stock solution was prepared in DMSO as a 10 mg/mL solution. The FS1-substrate working solution was prepared by diluting the 10 mg/mL stock solution with substrate assay buffer to a final concentration of 300 μg/mL. The β-secretase (BACE) working solution was prepared by diluting a 0.83 mg/mL BACE stock solution with enzyme assay buffer to a final concentration of 4 μg/mL. Test compounds were dissolved in DMSO to 10 mM. […] The screening procedure for this assay was as follows: 15 μL of BACE working solution was pipetted into each well of a 96-well plate. To each well was the pipetted 2 μL of test compound at the selected concentration. Test compound and BACE were then mixed with a pipettor and incubated for 20 min at room temperature. To each well was then added 10 μL of the FS1 substrate working solution. The plates were then incubated for 1 hour at room temperature. […] The procedure for the blank was as follows. 15 μL of assay buffer was pipetted into each well to be used as a blank control. To each well was then added 2 μL of vehicle and 10 μL of FS1-substrate working solution. The plates were then incubated for 1 hour at room temperature. […] The procedure for the positive control was as follows: 15 μL of BACE working solution was pipetted into each well to be used as a positive control. To each well was then pipetted 2 μL of vehicle. Vehicle and BACE were then mixed with a pipettor and incubated for 20 min at room temperature. To each well was then added 10 μL of the FS1 substrate working solution. The plates were then incubated for 1 hour at room temperature. […] For test compounds, % inhibition was determined at each concentration as follows: [formula]

T1 sequence (P56817 46-501): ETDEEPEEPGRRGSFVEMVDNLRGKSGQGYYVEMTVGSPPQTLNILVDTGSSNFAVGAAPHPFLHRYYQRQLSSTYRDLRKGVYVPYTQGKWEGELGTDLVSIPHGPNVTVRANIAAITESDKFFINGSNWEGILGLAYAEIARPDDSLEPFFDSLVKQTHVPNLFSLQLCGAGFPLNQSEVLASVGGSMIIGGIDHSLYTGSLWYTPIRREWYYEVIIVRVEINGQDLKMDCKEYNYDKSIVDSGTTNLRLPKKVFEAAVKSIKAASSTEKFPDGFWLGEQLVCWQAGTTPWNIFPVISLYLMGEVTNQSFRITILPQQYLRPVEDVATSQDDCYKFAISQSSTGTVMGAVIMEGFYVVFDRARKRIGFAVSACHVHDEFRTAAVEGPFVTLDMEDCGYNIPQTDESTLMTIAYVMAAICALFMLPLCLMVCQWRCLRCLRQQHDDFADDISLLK

Structure (SMILES)	% Inhibition (FS) (0.3 μM test compound) [%]	% Inhibition (FS) (1 μM test compound) [%]	% Inhibition (FS) (3 μM test compound) [%]
CCCC(=O)NCCN1Cc2cc(-c3cnc4ccccc4c3)ccc2N=C1N [Compound 673]	34	<30	<30
CC(C)(C)C(=O)NCCN1Cc2cc(-c3cnc4ccccc4c3)ccc2N=C1N [Compound 674]	36	<30	41
CC(C)CCC(=O)NCCN1Cc2cc(-c3cnc4ccccc4c3)ccc2N=C1N [Compound 675]	35	<30	<30
CCCCC(CC)C(=O)NCCN1Cc2cc(-c3cnc4ccccc4c3)ccc2N=C1N (stereo not drawn) [Compound 676]	33	<30	44
Cc1ccccc1-c1ccc2c(c1)CN(CCNC(=O)CCC(F)(F)F)C(N)=N2 [Compound 678]	51	88	99
Cc1ccccc1-c1ccc2c(c1)CN(CCNC(=O)CC(C)C(F)(F)F)C(N)=N2 (stereo not drawn) [Compound 679]	78	99	
NC1=Nc2ccc(-c3ccccc3F)cc2CN1CCNC(=O)CCC(F)(F)F [Compound 680]	42	75	90
CC(CC(=O)NCCN1Cc2cc(-c3ccccc3F)ccc2N=C1N)C(F)(F)F (stereo not drawn) [Compound 681]	67	100	
NC1=Nc2ccc(-c3ccccc3Cl)cc2CN1CCNC(=O)CCC(F)(F)F [Compound 682]	39	77	97
CC(CC(=O)NCCN1Cc2cc(-c3ccccc3Cl)ccc2N=C1N)C(F)(F)F (stereo not drawn) [Compound 683]	64	86	
NC1=Nc2ccc(-c3ccccc3)cc2CN1CCNC(=O)CCC(F)(F)F [Compound 684]	33	38	78

Second part, the compound after the results:

% Inhibition (FS) (0.3 μM test compound) [%]	% Inhibition (FS) (1 μM test compound) [%]	% Inhibition (FS) (3 μM test compound) [%]	Structure (SMILES)
50	90		CC(CC(=O)NCCN1Cc2cc(-c3ccccc3)ccc2N=C1N)C(F)(F)F (stereo not drawn) [Compound 685]
<30	73	80	NC1=Nc2ccc(-c3ccc4ccccc4c3)cc2CN1CCNC(=O)CCC(F)(F)F [Compound 686]
<30	50	87	NC1=Nc2ccc(-c3ccccc3F)cc2CN1CCNC(=O)C1CCOCC1 [Compound 687]
<30	36	81	NC1=Nc2ccc(-c3ccccc3F)cc2CN1CCNC(=O)C1CCC(C(F)(F)F)CC1 (stereo not drawn) [Compound 688]
33	82		NC1=Nc2ccc(-c3ccccc3Cl)cc2CN1CCNC(=O)C1CCOCC1 [Compound 689]
<30	<30	52	NC1=Nc2ccc(-c3ccccc3Cl)cc2CN1CCNC(=O)C1CCC(C(F)(F)F)CC1 (stereo not drawn) [Compound 690]
<30	<30	51	CC(=O)N1CCC(C(=O)NCCN2Cc3cc(-c4ccccc4Cl)ccc3N=C2N)CC1 [Compound 691]
<30	<30	84	Cc1ccccc1-c1ccc2c(c1)CN(CCNC(=O)C1CCC(C(F)(F)F)CC1)C(N)=N2 (stereo not drawn) [Compound 694]
<30	<30	54	CC(=O)N1CCC(C(=O)NCCN2Cc3cc(-c4ccccc4C)ccc3N=C2N)CC1 [Compound 695]
<30	72		COC1CCCC(C(=O)NCCN2Cc3cc(-c4ccccc4C)ccc3N=C2N)C1 (stereo not drawn) [Compound 696]
<30	<30	63	COc1ccccc1-c1ccc2c(c1)CN(CCNC(=O)C1CCOCC1)C(N)=N2 [Compound 697]
